Measured values taken from patent US8741645B2, “Test kit comprising a culture instrument with a cell pattern and a gel suitable to embed cell pattern” (Dai Nippon Printing Co., Ltd., priority 2006, dated 2014).

Tests used:
Assay type in all cases: cell-based
[1] = system: bovine aortic vascular endothelial cells; experiment: Lumen formation test (cell shrinkage), cell pattern sandwiched between substrate and GFR Matrigel (configuration of FIG. 3); set-up: key: ∘: Large inhibition effect; Δ: Small inhibition effect; x: No inhibition effect; conditions: inhibitor previously added; shrinkage of multiple cells observed, GFR Matrigel
Procedure: (§1) An autoclave-sterilized substrate was arranged within a culture container and then an appropriate amount of MEM medium containing 5% fetal calf serum was added. 2.0×10^5 bovine aortic vascular endothelial cells were seeded per substrate. After 72 hours of culture, cells adhered only to oxidatively degraded regions and reached confluency on the lines each having a width of 60 μm.
200 μl of ice-cooled Growth Factor Reduced (GFR) Matrigel (Becton, Dickinson and Company) was spread over a culture container and then allowed to stand at room temperature for approximately 1 minute. The substrate was gently placed with its cell adhesion face down onto the matrigel. The resultant was allowed to stand for approximately 5 minutes while maintaining this condition. After complete gelling, MEM medium containing 5% fetal calf serum was added and then the substrate was immersed in the medium. The culture container was transferred into an incubator (37° C., 5% CO2) and then cells were cultured while being sandwiched between a substrate and matrigel. […] This is a phenomenon that is characteristically observed when vascular endothelial cells undergo lumen formation in response to differentiation signals coming from the extracellular matrix. When a vascularization inhibitor had been previously added to the three-dimensional culture system, shrinkage of multiple cells was inhibited or not inhibited according to the relevant pharmacologic action (Table 1). This means that the effect of a drug on lumen formation can be efficiently tested via observation of cell shrinkage that is observed at the initial stage of differentiation. This test method could also be performed for normal human umbilical vein endothelial cells in completely the same manner.

[2] = system: Normal human (adult) dermal fibroblasts; experiment: Cell migration and proliferation of linear cell pattern embedded in collagen gel (configuration of FIG. 3); conditions: 10 μM in culture solution; observed at 3, 6, 9 and 21 hours; compared with culture solution and DMSO systems
Procedure: The above dish was sterilized with 70% ethanol. Normal human (adult) dermal fibroblasts (KF-4109, Cascade Biologics) dispersed in a culture solution (basal medium M-106-500S, additive agent KE-6350, and Cascade Biologics/KURABO) was seeded at 4×10^5 cells per dish. Cells were cultured using an incubator under conditions of 37° C. and 5% CO2 for 18 hours. A linear pattern formed by cells that had adhered was obtained.
Cell aggregates were embedded into gel that had been prepared using the collagen gel kit used in Example 5 and then three-dimensional culture was performed with the configuration of FIG. 3. After 30 minutes of gelling at 37° C., three types of culture were performed using (1) a system containing the above culture solution, (2) a system containing a culture solution prepared by adding 10 μM inhibitor PP2 to the above culture solution, and (3) a system containing a culture solution containing DMSO with the same concentration as that of DMSO (used as a solvent for preparing 1 mM stock solution of PP2) contained in the above-prepared culture solution containing PP2.

[3] = system: bovine aortic vascular endothelial cells; experiment: Vascularization test, three-dimensional culture of cell pattern in collagen gel (configuration of FIG. 2); conditions: 50 μM added to three-dimensional culture system, medium with proliferation factors
Procedure: as §1, with “48” for “72”, “culture within an incubator (37° C., 5% CO2),” for “culture,”
A collagen solution was prepared on ice using a collagen gel culture kit (Cellmatrix I-A, Nitta gelatin). 500 μl of the solution was spread flatly over a 28 mm×33 mm well, followed by 10 minutes of gelling at 37° C. 2 ml of MEM medium containing 5% fetal calf serum was added to the gel. The substrate was caused to sink while upside-down in the medium, so that cells that had adhered to the substrate were caused to come into contact with collagen gel at the bottom. After 4 hours of culture within an incubator, the substrate was carefully removed using a pair of tweezers. […] The medium was removed by suction, 250 μl of the collagen solution was applied in layers to the cells, and then gelling was performed at 37° C. for 10 minutes. […]

| Structure (SMILES) | Inhibition effect (inhibiting lumen formation) [1] | cell migration [2] | cell proliferation [2] | vascularization [3] |
| --- | --- | --- | --- | --- |
| N=C(N)NC(=O)c1nc(Cl)c(N)nc1N [Amiloride] | x |  |  |  |
| O=c1cc(N2CCOCC2)oc2c(-c3ccccc3)cccc12 [LY294002] | Δ |  |  |  |
| CN(C)c1ccc(O)c2c1C[C@H]1C[C@H]3[C@H](N(C)C)C(O)=C(C(N)=O)C(=O)[C@@]3(O)C(O)=C1C2=O [Minocycline] | x |  |  |  |
| CC(C)(C)n1nc(-c2ccc(Cl)cc2)c2c(N)ncnc21 [PP2] | ∘ | significantly suppressed | significantly suppressed |  |
| Cc1ccc(C(=O)Nc2ccc(S(=O)(=O)O)c3cc(S(=O)(=O)O)cc(S(=O)(=O)O)c23)cc1NC(=O)c1cccc(NC(=O)Nc2cccc(C(=O)Nc3cc(C(=O)Nc4ccc(S(=O)(=O)O)c5cc(S(=O)(=O)O)cc(S(=O)(=O)O)c45)ccc3C)c2)c1 [Suramin] | x |  |  | completely inhibited |
| C[C@@H](N)[C@H]1CC[C@H](C(=O)Nc2ccncc2)CC1 [Y27632] | x |  |  |  |
